# Like-named read-outs stand apart in the source and are kept apart here.
# What was measured:
# wild-type GCase = wild-type GCase (Homo sapiens (Human), UniProt P04062); assay: GCase enzyme activity assay (4MU-β-Glc, no taurocholate); assay type: biochemical
# Method: In previous studies, high concentrations of taurocholate (4-10 mM) were used to improve the signal in GCase enzyme activity assays^16,27,28. […] Here we describe our modifications of the substituents on the quinazoline ring.
# 4-Methylumbelliferyl β-D-glucopyranoside (4MU-β-Glc), 4-methylumbelliferyl α-D-glucopyranoside,4-methylumbelliferyl α-D-galactopyranoside, and buffer components were purchased from Sigma-Aldrich (St. Louis, Mo.). The recombinant wild-type GCase enzyme velaglucerase alfa (Vpriv®, Shire Human Genetic Therapies, Inc.), acid α-glucosidase enzyme alglucosidase alfa (Lumizyme®, Genzyme Corporation), α-galactosidase A enzyme agalsidase beta (Fabrazyme®, Genzyme Corporation) were used in activity assays. […] A solution of 1 M sodium hydroxide and 1 M glycine (pH 10) was used as the stop solution for all three enzyme activity assays.
# The compounds in DMSO solution (0.5 μL/well) were transferred to a black 96-well plate (the final titration started from 100 μM, a 12 or 24-point 2-fold dilution series). […] After 5 min of incubation at room temperature, the enzyme reaction was initiated by the addition of blue substrate (4MU-13-Glc) (33 μL/well). The final concentration of the blue substrate was 1.5 mM. The blue substrate reaction was terminated by the addition of 33 μL/well stop solution (1 M NaOH and 1 M glycine mixture, pH 10) after 30 min of incubation at 37° C. […] The selected compounds were further assayed under pH 5.0 and pH 7.0 to evaluate their selectivity under various pH conditions.
# Glucocerebrosidase = Glucocerebrosidase (Homo sapiens (Human), UniProt P04062); assay: Glucocerebrosidase activity assay with blue substrate (4MU-Glc); assay type: biochemical; settings: for IC50 or AC50 (act): marked (act), activator
# Method: The compounds in DMSO solution 0.5 μL/well were transferred to a black 96-well plate. The final titration was 24 nM to 50 μM, 12 concentrations, 2 times dilution. […] After 5 min of incubation at room temperature, the enzyme reaction was initiated by the addition of 33 μL/well blue substrate. Final concentrations of the blue substrate (4MU-Glc) was 1.5 mM. The blue substrate reaction was terminated by the addition of 33 μL/well stop solution (1 M NaOH and 1 M glycine mixture, pH 10) after 30 min of incubation at 37° C. The fluorescence was then measured in the Biotek Synergy H1 multi-mode plate reader with Ex=365 nm and Em=440 nm.
# Additional compounds were prepared and tested according to the procedures provided in the examples above.
# Additional substituted quinazoline compounds were prepared and tested according to the procedures provided in the examples above.
# [1] = Table 5, pH 5.9, mean ± SD, read-out: IC50
# [2] = Table 3, pH 5.9, mean ± SD, read-out: IC50
# [3] = Table 2, pH 5.9, mean ± SD, read-out: IC50
# [4] = Table 1, pH 5.9, mean ± SD, read-out: IC50
# [5] = Table 4, pH 5.9, mean ± SD, read-out: IC50
# [6] = marked (inh), inhibitor, read-out: IC50 or AC50 (inh)
# [7] = marked inhibitor, read-out: Activity AC50 or IC50 (inhibitor)
# Glucocerebrosidase, sequence (P04062 40-536): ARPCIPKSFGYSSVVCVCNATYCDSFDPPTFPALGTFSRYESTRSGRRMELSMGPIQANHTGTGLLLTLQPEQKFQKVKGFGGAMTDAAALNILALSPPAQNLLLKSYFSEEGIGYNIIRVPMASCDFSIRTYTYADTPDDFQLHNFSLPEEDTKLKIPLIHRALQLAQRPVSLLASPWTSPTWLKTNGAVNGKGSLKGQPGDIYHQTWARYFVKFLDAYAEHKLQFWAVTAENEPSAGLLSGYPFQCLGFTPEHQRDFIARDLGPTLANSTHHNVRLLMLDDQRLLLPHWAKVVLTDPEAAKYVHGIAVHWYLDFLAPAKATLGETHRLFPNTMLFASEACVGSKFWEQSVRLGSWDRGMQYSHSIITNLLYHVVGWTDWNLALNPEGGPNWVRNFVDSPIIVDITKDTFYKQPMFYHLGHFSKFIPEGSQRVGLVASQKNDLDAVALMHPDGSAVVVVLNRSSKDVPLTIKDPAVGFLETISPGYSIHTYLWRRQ
# wild-type GCase, sequence (P04062 40-536): as above
smiles,measurement,setting,value
"Cc1ccncc1-c1nc(NC2Cc3ccccc3C2)c2ccccc2n1 [Compound 11a, N-(2,3-dihydro-1H-inden-2-yl)-2-(4-methylpyridin-3-yl)quinazolin-4-amine]",IC50,wild-type GCase; [1],122 ± 12 nM
c1ccc(CCNc2nc(-c3cccnc3)nc3ccccc23)nc1 [Compound 8f],IC50,wild-type GCase; [2],1400 ± 120 nM
c1ccc(CNc2nc(-c3cccnc3)nc3ccccc23)cc1 [Compound 8b],IC50,wild-type GCase; [2],5770 ± 820 nM
c1cncc(-c2nc(NC3CCCC3)c3ccccc3n2)c1 [Compound 7c],IC50,wild-type GCase; [3],720 ± 50 nM
c1cncc(-c2nc(NC3CCCOC3)c3ccccc3n2)c1 (stereo not shown) [Compound 6h],IC50,wild-type GCase; [4],891 ± 23 nM
COC1CCC(Nc2nc(-c3cccnc3)nc3ccccc23)CC1 (stereo not shown) [Compound 6d],IC50,wild-type GCase; [4],251 ± 18 nM
c1cncc(-c2nc(NC3CCc4ccccc43)c3ccccc3n2)c1 (stereo not shown) [Compound 9e],GCase inhibitory activity in words,wild-type GCase,low micromolar range
same,IC50,wild-type GCase; [5],821 ± 73 nM
c1ccc(CN2CCC(Nc3nc(-c4cccnc4)nc4ccccc34)CC2)cc1 [Compound 6k],IC50,wild-type GCase; [4],36100 ± 8720 nM
c1ccc(CCNc2nc(-c3cccnc3)nc3ccccc23)cc1 [Compound 8c],IC50,wild-type GCase; [2],97 ± 9 nM
c1cncc(-c2nc(NC3CC4CCC3C4)c3ccccc3n2)c1 (stereo not shown) [Compound 7g],IC50,wild-type GCase; [3],282 ± 43 nM
c1ccc(CCCCNc2nc(-c3cccnc3)nc3ccccc23)cc1 [Compound 8e],IC50,wild-type GCase; [2],1280 ± 130 nM
c1cncc(-c2nc(NC3CCCc4ccccc43)c3ccccc3n2)c1 (stereo not shown) [Compound 9d],GCase inhibitory activity in words,wild-type GCase,low micromolar range
same,IC50,wild-type GCase; [5],872 ± 71 nM
c1cncc(-c2nc(NCCC3CCCCC3)c3ccccc3n2)c1 [Compound 7i],IC50,wild-type GCase; [3],857 ± 33 nM
"c1ccc2c(c1)CC(Nc1nc(-c3ccncc3)nc3ccccc13)C2 [Compound 11e, N-(2,3-dihydro-1H-inden-2-yl)-2-(pyridin-4-yl)quinazolin-4-amine]",IC50,wild-type GCase; [1],168 ± 18 nM
c1cncc(CCNc2nc(-c3cccnc3)nc3ccccc23)c1 [Compound 8g],IC50,wild-type GCase; [2],4290 ± 570 nM
CC1(C)CCC(Nc2nc(-c3cccnc3)nc3ccccc23)CC1 [Compound 6e],IC50,wild-type GCase; [4],431 ± 42 nM
c1cncc(-c2nc(NC3Cc4ccccc4C3)c3ccccc3n2)c1 [Compound 9c],IC50,wild-type GCase; [5],8.3 ± 1 nM
same,IC50,"wild-type GCase; pH 5.0, mean ± SD, read-out: IC50 pH 5.0",25.9 ± 3.9 nM
same,IC50,"wild-type GCase; pH 7.0, mean ± SD, read-out: IC50 pH 7.0",12.7 ± 1.4 nM
COC(=O)CCCCCCCCC#Cc1ccc(OCCN(C)c2nc(-c3cccnc3)nc3ccccc23)cc1 [compound 109],Activity AC50 or IC50 (activator),"Glucocerebrosidase; marked activator, AC50",Weak activator
c1cncc(-c2nc(NC3CCCCC3)c3ccccc3n2)c1 [compound 40],IC50,Glucocerebrosidase; [6],177 nM
CN(c1nc(-c2cccnc2)nc2ccccc12)C1CCc2ccccc2C1 (stereo not shown) [compound 75],IC50,Glucocerebrosidase; [6],1580 nM
c1ccc(CCCCNc2nc(-c3cccnc3)nc3ccccc23)cc1 [compound 53],IC50,Glucocerebrosidase; [6],1580 nM
c1cncc(-c2nc(NCC3COc4ccccc4O3)c3ccccc3n2)c1 (stereo not shown) [compound 20],IC50,Glucocerebrosidase; [6],7940 nM
CC(COc1ccccc1)Nc1nc(-c2cccnc2)nc2ccccc12 (stereo not shown) [compound 97],IC50,Glucocerebrosidase; [7],2510 nM
O=C(C1COc2ccccc2O1)N1CCN(c2nc(-c3cccnc3)nc3ccccc23)CC1 (stereo not shown) [compound 29],IC50,Glucocerebrosidase; [6],2240 nM
c1cncc(-c2nc(N3CCc4[nH]c5ccccc5c4C3)c3ccccc3n2)c1 [compound 93],AC50,"Glucocerebrosidase; marked activator, AC50, read-out: Activity AC50 or IC50 (activator)",6310 nM
CN(c1nc(-c2cccnc2)nc2ccccc12)[C@H]1CCc2ccccc2C1 [compound 84],IC50,Glucocerebrosidase; [6],500 nM
CC1CCCC(Nc2nc(-c3cccnc3)nc3ccccc23)C1 (stereo not shown) [compound 86],IC50,Glucocerebrosidase; [6],79 nM
c1ccc(C2CCCN(c3nc(-c4cccnc4)nc4ccccc34)C2)cc1 (stereo not shown) [compound 82],IC50 or AC50 (act),Glucocerebrosidase; AC50,Weak (act)
Ic1ccc2c(c1)CC(Nc1nc(-c3cccnc3)nc3ccccc13)C2 (stereo not shown) [compound 89],IC50,Glucocerebrosidase; [6],168 nM
CCCCCCCCNc1nc(-c2cccnc2)nc2ccccc12 [compound 95],IC50,Glucocerebrosidase; [7],2240 nM
c1ccc(CCNc2nc(-c3cccnc3)nc3ccccc23)cc1 [compound 60],IC50,Glucocerebrosidase; [6],112 nM
CN(CCCCCCCCCCN(C)c1nc(-c2cccnc2)nc2ccccc12)c1nc(-c2cccnc2)nc2ccccc12 [compound 112],Activity AC50 or IC50 (activator),Glucocerebrosidase,Weak activator
CC(C)(C)Nc1nc(-c2cccnc2)nc2ccccc12 [compound 54],IC50 or AC50 (act),Glucocerebrosidase; AC50,Weak (act)

# From patent US10167270B2, “Substituted quinazoline compounds and uses thereof for modulating glucocerebrosidase activity” (Northwestern University, priority 2015, dated 2019)
